Ends that are not written are not given here. Peptide text beside a SMILES is read from it. * marks the point of attachment. AMC = Cc1cc(=O)oc2cc(N*)ccc12; Cbz = O=C(OCc1ccccc1)*; Boc = CC(C)(C)OC(=O)*

In assay [1] the test system is trichomonal hydrolases. The experiment in a line: Experiment 2: hydrolysis of substrates by trichomonal hydrolases with or without NVS, absorbance 540 nm. It is filed as biochemical, Trichomonas vaginalis. Particulars: absorbance at 540 nm per method; for Color Scores: Trichomonal hydrolases + NVS: 10% NVS. As to the method: Substrate solutions containing 8 mM of one of the four substrates (ZRR-MNA, BLRR-AMC, BLKR-AMC, ZKKR-AMC) in one of the two buffers (acetate, TRIS) were prepared by mixing 4 μL 100 mM substrate with 6 μL 6.3 mM L-cysteine, 14 μL 200 mM buffer and 26 μL water. Assays of trichomonal hydrolase activity, with or without the addition of NVS, were performed in 200 μL microwells. In one set of microwells, 10 μL of each substrate/buffer combination was mixed with 10 μL of undiluted trichomonal hydrolases. In a second set of microwells, 10 μL of each substrate/buffer combination was mixed with 10 μL of a mixture of 90% v/v trichomonal hydrolases and 10% NVS. Fifteen minutes later, 50 μL of indicator solution was added to each well. After another fifteen minutes, the absorbance of each solution in the wells was measured on a microtiter plate reader set on 540 nm wavelength.

The test system of assay [2] is hydrolases present in whole normal vaginal fluid. The experiment in a line: Experiment 2: hydrolysis of substrates by whole normal vaginal fluid, visual color score. It counts as biochemical, human. Details: key: 0: Yellow; 1: Peach; 2: Orange; 3: Light to medium pink; 4: Dark pink or red; 5: Fuchsia; 6: Purple. Conditions: visual 0-6 scale. As for the experimental part: Due to the partial opacity of cells and other particulate matter in whole vaginal fluid, assays of hydrolase activity present in whole vaginal fluid were performed in 20 μL conical microwells and scored visually. The vaginal fluid from a single normal, uninfected donor was agitated to resuspend the particulate matter, and 2 μL aliquots of the vaginal fluid were mixed with 2 μL of each substrate/buffer combination. To retard evaporation from the wells, water was pipetted into the mini-tray adjacent to the wells prior to replacing the tray cover. Fifteen minutes later, 2 μL of indicator solution was added to each well. After another fifteen minutes, the color in each well was visually scored in 0.5-unit increments using the 0-6 scale presented in Table 2.1.

In assay [3] the test system is trichomonal hydrolases. The experiment in a line: Experiment 1: hydrolysis of substrates by trichomonal hydrolases at pH 2.8-9.2, with or without normal vaginal fluid supernatant (NVS), absorbance 540 nm. It counts as biochemical, Trichomonas vaginalis. Conditions: for Absorbance Readings: 540 nm. As to the method: Assays without normal vaginal fluid supernatant present: Two sets of six wells in a microtiter plate were prepared, with each well containing 80 μL of one of the six 200 mM buffers, 10 μL of water and 10 μL of diluted trichomonal hydrolases. Ten μL of ZRR-MNA was added to each well in the first set of wells, and 10 μl of VLK-MNA was added to each well in the second set of wells. After fifteen minutes, 100 μl of indicator solution was added to each well. Because a high pH can reduce the intensity of color produced by the indicator solution, 50 μl of 100 mM acetic acid buffer, pH 3.7, was added to each well except the pH 2.8 wells (water was substituted for the acetic acid in those wells). After another fifteen minutes, the absorbance of the solutions in the wells was measured on a microtiter plate reader set on 540 nm wavelength.
Assays with normal vaginal fluid supernatant (NVS) present: The procedure of the preceding paragraph was followed, except that 10 μL of diluted NVS was added to the wells in place of the 10 μL of water.

The subject of assay [4] is trichomonal hydrolases. Put plainly: Experiment 13: hydrolysis of peptide substrates by trichomonal hydrolases at low pH, no vaginal fluid. Details: key: −: No red color produced; +: Clearly visible red color produced; ++: Moderately intense red color produced; +++: Very intense red color produced. Conditions: without vaginal fluid; threonine buffer pH 2.4; 2 mM substrate solution; 10 min 25° C.; Fast Garnet. It counts as biochemical, Trichomonas vaginalis. As for the experimental part: (§1) Forty μL of each substrate was pipetted into duplicate wells of a microtiter plate. The plate was covered with tape, placed into a 25° C. incubator, and allowed to warm. A diluted enzyme mixture was prepared by mixing one part (v/v) freshly-thawed trichomonal hydrolase solution to nine parts 2 mM L-cysteine solution. Forty μL of this mixture was added to one well of each pair of duplicate wells. For negative controls, 40 μL of 2 mM L-cysteine was added to the second well in each pair of duplicate wells. The plate was returned to the incubator and incubated for ten minutes. Forty μL of SDS/acetate solution was added to each well, followed by 40 μL of Fast Garnet solution. The intensity of color that developed in each well after five minutes was visually scored using the color scale presented in Table 13.1.

In assay [5] the test system is trichomonal hydrolases. Put plainly: Experiment 13: hydrolysis of peptide substrates by trichomonal hydrolases at low pH in vaginal fluid supernatant. It counts as biochemical, Trichomonas vaginalis. Details: key: −: No red color produced; +: Clearly visible red color produced; ++: Moderately intense red color produced; +++: Very intense red color produced. Particulars: Fast Garnet. As for the experimental part: as §1
Of the nine substrates hydrolyzed by trichomonal hydrolases to produce an intense pink color (scoring ++ or +++) in the absence of vaginal fluid supernatant, only four produced intense pink color when vaginal fluid supernatant was present.

The subject of assay [6] is non-trichomonal hydrolases present in vaginal fluid. The experiment in a line: Experiment 8: polypeptide inhibition of hydrolases in whole vaginal fluid of uninfected women. It counts as biochemical, human. Details: key: 0: Yellow; 1: Peach; 2: Orange; 3: Light to medium pink; 4: Dark pink or red; 5: Fuchsia; 6: Purple. Conditions: ZRR-MNA, 10 mM polypeptide in substrate solution. As for the experimental part:
(§2) The vaginal fluid was extracted from each swab by centrifugation, and then mixed to resuspend the particulate matter. For each donor, 2 μL of vaginal fluid was pipetted into each of ten microwells, then 2 μL of one of the ten substrate/buffer/polypeptide combinations was added to each well. Additionally, 2 μL of trichomonal hydrolases was mixed with 2 μL of each of the substrate/polypeptide combinations in set of ten wells. After fifteen minutes, 2 μL of indicator solution was added to each well.

Assay [7] deals with trichomonal hydrolases. The experiment in a line: Experiment 8: polypeptide inhibition of trichomonal hydrolases. It is filed as biochemical, Trichomonas vaginalis. On the set-up: key: 0: Yellow; 1: Peach; 2: Orange; 3: Light to medium pink; 4: Dark pink or red; 5: Fuchsia; 6: Purple. Conditions: 10 mM polypeptide in substrate solution. As for the experimental part: as §2
Where [8] appears, read: pH 5, Donor A whole vaginal fluid.
[9] abbreviates: pH 5, Donor B whole vaginal fluid.
Where [10] appears, read: pH 5, Donor C whole vaginal fluid.
Where [11] appears, read: pH 5, Donor D whole vaginal fluid.
[12] abbreviates: pH 8, Donor A whole vaginal fluid.
Where [13] appears, read: pH 8, Donor B whole vaginal fluid.
Setting [14] is: pH 8, Donor C whole vaginal fluid.
The mark [15] stands for this setting: pH 8, Donor D whole vaginal fluid.

As for `Cc1cc(=O)oc2cc(NC(=O)[C@H](CCCN=C(N)N)NC(=O)[C@H](CCCCN)NC(=O)[C@H](CC(C)C)NC(=O)OC(C)(C)C)ccc12` [BLKR-AMC, BOC-Leu-Lys-Arg-AMC] (Boc-Leu-Lys-Arg-{AMC}), the “Color Scores: Trichomonal hydrolases + NVS” value with trichomonal hydrolases [1] (pH 5 acetate) came to 0.123; in the assay on trichomonal hydrolases [1] (pH 8 TRIS), 0.731. Moreover, the “Color Scores: Trichomonal hydrolases” value was determined as 0.638 in the assay on trichomonal hydrolases [1] (pH 5 acetate) and 0.649 with trichomonal hydrolases [1] (pH 8 TRIS). For the same molecule, the figures for the “Color Scores: Whole normal vaginal fluid” value in assay [2] (pH 5 acetate) and in assay [2] (pH 8 TRIS) were 0.5 and 6, respectively.
Regarding `Cc1cc(=O)oc2cc(NC(=O)[C@H](CCCN=C(N)N)NC(=O)[C@H](CCCN=C(N)N)NC(=O)[C@H](CC(C)C)NC(=O)OC(C)(C)C)ccc12` [BLRR-AMC, BOC-Leu-Arg-Arg-AMC] (Boc-Leu-Arg-Arg-{AMC}), the “Color Scores: Trichomonal hydrolases + NVS” value turned out to be 0.114 in the assay on trichomonal hydrolases [1] (pH 5 acetate) and 0.568 in the assay with trichomonal hydrolases [1] (pH 8 TRIS). In addition, the results for the “Color Scores: Trichomonal hydrolases” value in the assay with trichomonal hydrolases [1] (pH 5 acetate) and with trichomonal hydrolases [1] (pH 8 TRIS) were 0.536 and 0.463, respectively. For the same molecule, the “Color Scores: Whole normal vaginal fluid” value in assay [2] (pH 5 acetate) amounted to 0.5; in assay [2] (pH 8 TRIS), 6.
Turning to `Cc1cc(=O)oc2cc(NC(=O)[C@H](CCCNC(=N)N)NC(=O)[C@H](CCCCN)NC(=O)[C@H](CCCCN)NC(=O)OCc3ccccc3)ccc12` [ZKKR-AMC, CBZ-Lys-Lys-Arg-AMC] (Cbz-Lys-Lys-Arg-{AMC}), the results for the “Color Scores: Trichomonal hydrolases + NVS” value in the assay on trichomonal hydrolases [1] (pH 5 acetate) and with trichomonal hydrolases [1] (pH 8 TRIS) were 0.099 and 0.352, respectively. The “Color Scores: Trichomonal hydrolases” value is 0.225 in the assay on trichomonal hydrolases [1] (pH 5 acetate) and 0.357 with trichomonal hydrolases [1] (pH 8 TRIS). For the same molecule, the figures for the “Color Scores: Whole normal vaginal fluid” value in assay [2] (pH 5 acetate) and in assay [2] (pH 8 TRIS) were 0.5 and 2, respectively.
On to `COc1cc(NC(=O)[C@H](CCCN=C(N)N)NC(=O)[C@H](CCCN=C(N)N)NC(=O)OCc2ccccc2)cc2ccccc12` [ZRR-MNA, CBZ-Arg-Arg-MNA], for which the “color production relative to that observed when vaginal fluid was not present” value with trichomonal hydrolases [3] (pH 8 TRIS buffer, 0.403/0.667) amounted to 60%. Besides, the “Absorbance Readings” value in the assay with trichomonal hydrolases [3] (with vaginal fluid supernatant, Acetate pH 5.1) is 0.082; in the assay with trichomonal hydrolases [3] (with vaginal fluid supernatant, Borate pH 9.2), 0.089; in the assay on trichomonal hydrolases [3] (with vaginal fluid supernatant, Gly-gly pH 2.8), 0.085; with trichomonal hydrolases [3] (with vaginal fluid supernatant, HEPES pH 7.5), 0.386; in the assay on trichomonal hydrolases [3] (with vaginal fluid supernatant, MOPS pH 7.0) it was 0.313; in the assay on trichomonal hydrolases [3] (with vaginal fluid supernatant, TRIS pH 8.0), 0.403. Besides, the “Absorbance Readings” value in the assay with trichomonal hydrolases [3] (without vaginal fluid supernatant, Acetate pH 5.1) stood at 0.792; in the assay on trichomonal hydrolases [3] (without vaginal fluid supernatant, Borate pH 9.2), 0.172; in the assay on trichomonal hydrolases [3] (without vaginal fluid supernatant, Gly-gly pH 2.8), 0.631; with trichomonal hydrolases [3] (without vaginal fluid supernatant, HEPES pH 7.5) it was 0.738; in the assay with trichomonal hydrolases [3] (without vaginal fluid supernatant, MOPS pH 7.0), 0.638; with trichomonal hydrolases [3] (without vaginal fluid supernatant, TRIS pH 8.0), 0.667. Further, the “Color Score” value is reported as “++” in the assay with trichomonal hydrolases [4] and “+” in the assay with trichomonal hydrolases [5]. Further, the “Color Scores: Trichomonal hydrolases + NVS” value came out at 0.068 with trichomonal hydrolases [1] (pH 5 acetate) and 0.182 with trichomonal hydrolases [1] (pH 8 TRIS). In addition, the entries for the “Color Scores: Trichomonal hydrolases” value with trichomonal hydrolases [1] (pH 5 acetate) and in the assay on trichomonal hydrolases [1] (pH 8 TRIS) were 0.420 and 0.385, respectively. Further, the “Color Scores: Whole normal vaginal fluid” value in assay [2] (pH 5 acetate) was found to be 3; in assay [2] (pH 8 TRIS), 4.
For KPQLWP, the “Hydrolase activity color score with polypeptide” value (shortened to “Hydrolase activity color score”) in assay [6] (setting [8]) is 0; in assay [6] (setting [9]) it was 0; in assay [6] (setting [10]), 0; in assay [6] (setting [11]), 0; in assay [6] (setting [12]), 0.5; in assay [6] (setting [13]), 0.5. In addition, the “Hydrolase activity color score” value was 0 in assay [6] (setting [14]); 0 in assay [6] (setting [15]); 3 in the assay on trichomonal hydrolases [7] (pH 5, ZRR-MNA); 3 in the assay with trichomonal hydrolases [7] (pH 8, ZRR-MNA).
On to KRQHPG, for which the “Hydrolase activity color score” value came out at 2 in assay [6] (setting [8]); 2 in assay [6] (setting [9]); 0 in assay [6] (setting [10]); 2 in assay [6] (setting [11]); 2.5 in assay [6] (setting [12]); 2 in assay [6] (setting [13]). Moreover, the “Hydrolase activity color score” value in assay [6] (setting [14]) stood at 0.5; in assay [6] (setting [15]), 2; in the assay on trichomonal hydrolases [7] (pH 5, ZRR-MNA) it was 3; in the assay on trichomonal hydrolases [7] (pH 8, ZRR-MNA) it was 3.
Turning to “RPKPQFFGLM [Arg-Pro-Lys-Pro-Gln-Phe-Phe-Gly-Leu-Met]”, the “Hydrolase activity color score” value was found to be 0.5 in assay [6] (setting [8]); 1 in assay [6] (setting [9]); 0 in assay [6] (setting [10]); 0.5 in assay [6] (setting [11]); 0.5 in assay [6] (setting [12]); 0.5 in assay [6] (setting [13]). The “Hydrolase activity color score” value in assay [6] (setting [14]) was 0; in assay [6] (setting [15]) it was 0; with trichomonal hydrolases [7] (pH 5, ZRR-MNA) it was 1; in the assay with trichomonal hydrolases [7] (pH 8, ZRR-MNA), 0.5.

Source of the values: US20080026417A1, “ASSAYS FOR TRICHOMONAL AND OTHER HYDROLASES” (priority 2002, published 2008).
